Source: US9597310B2, “Indanyloxydihydrobenzofuranylacetic acids” (Boehringer Ingelheim International GmbH, priority 2012, dated 2017)
pEC50: −log10 of the molar value.

Tests used:
[1] = Chemical stability (degradation kinetics) in acidic aqueous media, HPLC recovery rate; assay type: physicochemical; conditions: pH value of ca. 1.2, acetonitrile/0.1 M aqueous HCl (2:3), 37° C.
Procedure: Degradation kinetics is used to simulate chemical stability of compounds in the acidic part of the gastro intestinal tract.
The chemical stability of the compounds of the invention at pH value of ca. 1.2 is determined as follows:
Compound is dissolved in an HPLC vial either in a mixture of acetonitrile/0.1 M aqueous HCl (2:3; pH ca. 1.2) or in a mixture of acetonitrile/McIlvaine buffer pH 7.4 (2:3) to get a concentration of approximately 0.25 mg/ml. The vial was then transferred into an HPLC autosampler system and maintained at a temperature of 37° C. A first sample is taken and injected immediately into a standard HPLC system with a UV DAD detector. Further samples are injected after 2, 4, 6, 8 and 10 hours. Degradation of the compound is measured by determining the recovery rate of compound [%] for each injection using an HPLC standard gradient method. Therefore the peak area of the main peak for the first injection (AUt0) is determined and set as 100%. Peak area of the main peak is determined also for the further injections (AUtn, n=2, 4, 6, 8, 10) and expressed as fraction of […] [%].

human GPR40 receptor = human GPR40 receptor (Homo sapiens (Human), UniProt O14842); assay: IP1 accumulation measurements using the IPOne assay system; assay type: cell-based; conditions: 1321N1 cells stably expressing human GPR40 receptor, 1 h stimulation
Chain of human GPR40 receptor (O14842 whole entry): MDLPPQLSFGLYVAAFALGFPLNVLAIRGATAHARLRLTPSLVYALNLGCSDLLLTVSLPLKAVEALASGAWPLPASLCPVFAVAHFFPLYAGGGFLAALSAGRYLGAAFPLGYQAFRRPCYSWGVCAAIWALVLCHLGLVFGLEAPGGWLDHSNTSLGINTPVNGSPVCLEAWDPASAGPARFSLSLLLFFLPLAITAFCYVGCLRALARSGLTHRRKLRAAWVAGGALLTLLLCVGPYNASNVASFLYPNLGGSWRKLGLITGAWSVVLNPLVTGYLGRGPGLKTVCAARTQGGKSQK
Procedure: IP1 accumulation measurements using the IPOne assay system—1321N1 cells stably expressing human GPR40 receptor (Euroscreen, Belgium) are seeded 24 h before the assay in white 384-well plates in culture medium containing 10% FCS, 1% Na-Pyruvate and 400 μg/mL G418. IP1 is assayed according to the manufacturer's description (Cisbio Bioassays, France). In brief, the assay is started by substitution of the culture medium by stimulation buffer (Hepes 10 mM, CaCl2 1 mM, MgCl2 0.5 mM, KCl 4.2 mM, NaCl 146 mM, glucose 5.5 mM and LiCl 50 mM, pH 7.4). Cells are stimulated for 1 h at 37° C., 5% CO2 by addition of the compounds that are diluted in stimulation buffer containing LiCl. Assays are stopped by adding HTRF-conjugates (IP1-d2 and Anti-IP1 cryptate Tb) and lysis buffer, provided by the manufacturer. After an incubation time of 1 h at room temperature plates are measured using an EnVision™, Perkin Elmer. The obtained fluorescence ratios at 665/615 […] are then used to calculate the pEC50 values using Assay Explorer 3.3 Software (Accelrys, Inc.) by interpolation using an IP1 reference curve and subsequent sigmoidal curve fitting allowing for a variable hill slope.

Row | SMILES | Recovery rate after 2 h [1] [%] | pEC50 (human GPR40 receptor)
1 | COCCOc1ccc(Oc2ccc(F)c3c2CC[C@H]3Oc2ccc3c(c2)OC[C@H]3CC(=O)O)cc1 [Example 1, [(S)-6-{(R)-7-Fluoro-4-[4-(2-methoxy-ethoxy)-phenoxy]-indan-1-yloxy}-2,3-dihydro-benzofuran-3-yl]-acetic acid] | 97.5 | 8.15
2 | CC(C)(O)CCOc1ccc(Oc2ccc(F)c3c2CC[C@H]3Oc2ccc3c(c2)OC[C@H]3CC(=O)O)cc1 [Example 2, [(S)-6-{(R)-7-Fluoro-4-[4-(3-hydroxy-3-methyl-butoxy)-phenoxy]-indan-1-yloxy}-2,3-dihydro-benzofuran-3-yl]-acetic acid] | >98 | 8.30
3 | CC(C)(O)COc1ccc(Oc2ccc(F)c3c2CC[C@H]3Oc2ccc3c(c2)OC[C@H]3CC(=O)O)cc1 [Example 3, [(S)-6-{(R)-7-Fluoro-4-[4-(2-hydroxy-2-methyl-propoxy)-phenoxy]-indan-1-yloxy}-2,3-dihydro-benzofuran-3-yl]-acetic acid] | 97.5 | 7.89
4 | CC(=O)Nc1cccc(Oc2ccc(F)c3c2CC[C@H]3Oc2ccc3c(c2)OC[C@H]3CC(=O)O)c1 [Example 6, {(S)-6-[(R)-4-(3-Acetylamino-phenoxy)-7-fluoro-indan-1-yloxy]-2,3-dihydro-benzofuran-3-yl}-acetic acid] | >98 | 8.10
5 | O=C(O)C[C@@H]1COc2cc(O[C@@H]3CCc4c(Oc5ccc(C(=O)N6CCCC6)cc5)ccc(F)c43)ccc21 [Example 9, [(S)-6-{(R)-7-Fluoro-4-[4-(pyrrolidine-1-carbonyl)-phenoxy]-indan-1-yloxy}-2,3-dihydro-benzofuran-3-yl]-acetic acid] | >99 | 7.74
6 | O=C(O)C[C@@H]1COc2cc(O[C@@H]3CCc4c(Oc5ccc6c(c5)CCO6)ccc(F)c43)ccc21 [Example 11, {(S)-6-[(R)-4-(2,3-Dihydro-benzofuran-5-yloxy)-7-fluoro-indan-1-yloxy]-2,3-dihydro-benzofuran-3-yl}-acetic acid] | 96.5 | 8.22
7 | Cn1nccc1-c1ccc(Oc2ccc(F)c3c2CC[C@H]3Oc2ccc3c(c2)OC[C@H]3CC(=O)O)c(C#N)c1 [Example 48, ((S)-6-{(R)-4-[2-Cyano-4-(1-methyl-1H-pyrazol-5-yl)phenoxy]-7-fluoro-indan-1-yloxy)-2,3-dihydrobenzofuran-3-yl}-acetic acid] |  | 8.05
8 | Cc1noc(C)c1-c1ccc(Oc2ccc(F)c3c2CC[C@H]3Oc2ccc3c(c2)OC[C@H]3CC(=O)O)c(C#N)c1 [Example 49, ((S)-6-{(R)-4-[2-Cyano-4-(3,5-dimethylisoxazol-4-yl)phenoxy]-7-fluoro-indan-1-yloxy}-2,3-dihydrobenzofuran-3-yl)-acetic acid] |  | 7.77
9 | O=C(O)C[C@@H]1COc2cc(O[C@@H]3CCc4c(Oc5ccc(OC6CCOCC6)cc5F)ccc(F)c43)ccc21 [Example 50, ((S)-6-{(R)-7-Fluoro-4-[2-fluoro-4-(tetrahydro-2H-pyran-4-yloxy)phenoxy]-indan-1-yloxy}-2,3-dihydrobenzofuran-3-yl)-acetic acid] |  | 8.40
10 | N#Cc1ccc(Oc2ccc(F)c3c2CC[C@H]3Oc2ccc3c(c2)OC[C@H]3CC(=O)O)cc1OC1CCOCC1 [Example 51, ((S)-6-{(R)-4-[4-Cyano-3-(tetrahydro-2H-pyran-4-yloxy)phenoxy]-7-fluoro-indan-1-yloxy}-2,3-dihydrobenzofuran-3-yl)-acetic acid] |  | 7.54
11 | CC(C)(O)COc1cc(Oc2ccc(F)c3c2CC[C@H]3Oc2ccc3c(c2)OC[C@H]3CC(=O)O)ccc1C#N [Example 52, ((S)-6-{(R)-4-[4-Cyano-3-(2-hydroxy-2-methylproproxy)phenoxy]-7-fluoro-indan-1-yloxy}-2,3-dihydrobenzofuran-3-yl)-acetic acid] |  | 7.51
12 | CC(C)(O)CCOc1ccc(Oc2ccc(F)c3c2CC[C@H]3Oc2ccc3c(c2)OC[C@H]3CC(=O)O)c(F)c1 [Example 53, ((S)-6-{(R)-7-Fluoro-4-[2-fluoro-4-(3-hydroxy-3-methylbutoxy)phenoxy]-indan-1-yloxy}-2,3-dihydrobenzofuran-3-yl)-acetic acid] |  | 8.15
13 | Cc1noc(C)c1-c1ccc(Oc2ccc(F)c3c2CC[C@H]3Oc2ccc3c(c2)OC[C@H]3CC(=O)O)c(F)c1 [Example 54, ((S)-6-{(R)-4-[4-(3,5-Dimethylisoxazol-4-yl)-2-fluorophenoxy]-7-fluoro-indan-1-yloxy}-2,3-dihydrobenzofuran-3-yl)-acetic acid] |  | 8.05
14 | Cn1nccc1-c1ccc(Oc2ccc(F)c3c2CC[C@H]3Oc2ccc3c(c2)OC[C@H]3CC(=O)O)c(F)c1 [Example 55, ((S)-6-{(R)-7-Fluoro-4-[2-fluoro-4-(1-methyl-1H-pyrazol-5-yl)phenoxy]-indan-1-yloxy}-2,3-dihydrobenzofuran-3-yl)-acetic acid] |  | 8.22
15 | CC(C)(O)CCCc1ccc(Oc2ccc(F)c3c2CC[C@H]3Oc2ccc3c(c2)OC[C@H]3CC(=O)O)c(C#N)c1 [Example 56, ((S)-6-{(R)-4-[2-Cyano-4-(4-hydroxy-4-methylpentyl)phenoxy]-7-fluoro-indan-1-yloxy}-2,3-dihydrobenzofuran-3-yl)-acetic acid] |  | 7.42
16 | O=C(O)C[C@@H]1COc2cc(O[C@@H]3CCc4c(Oc5cccc(N6CCCC6=O)c5)ccc(F)c43)ccc21 [Example 57, ((S)-6-{(R)-7-Fluoro-4-[3-(2-oxopyrrolidin-1-yl)phenoxy]-indan-1-yloxy}-2,3-dihydrobenzofuran-3-yl)-acetic acid] |  | 8.40
17 | O=C(O)C[C@@H]1COc2cc(O[C@@H]3CCc4c(Oc5ccc(N6CCCC6=O)cc5)ccc(F)c43)ccc21 [Example 58, ((S)-6-{(R)-7-Fluoro-4-[4-(2-oxopyrrolidin-1-yl)phenoxy]-indan-1-yloxy}-2,3-dihydrobenzofuran-3-yl)-acetic acid] |  | 7.74
18 | O=C(O)C[C@@H]1COc2cc(O[C@@H]3CCc4c(Oc5ccc(CN6CCCC6)cc5)ccc(F)c43)ccc21 [Example 59, ((S)-6-{(R)-7-Fluoro-4-[4-(pyrrolidin-1-ylmethyl)phenoxy]-indan-1-yloxy}-2,3-dihydrobenzofuran-3-yl)-acetic acid] |  | 6.67
19 | N#CCc1ccc(Oc2ccc(F)c3c2CC[C@H]3Oc2ccc3c(c2)OC[C@H]3CC(=O)O)cc1 [Example 60, ((S)-6-{(R)-4-[4-(Cyanomethyl)phenoxy]-7-fluoro-indan-1-yloxy}-2,3-dihydrobenzofuran-3-yl)-acetic acid] |  | 7.70
20 | N#CCCc1ccc(Oc2ccc(F)c3c2CC[C@H]3Oc2ccc3c(c2)OC[C@H]3CC(=O)O)cc1 [Example 61, ((S)-6-{(R)-4-[4-(2-Cyanoethyl)phenoxy]-7-fluoro-indan-1-yloxy}-2,3-dihydrobenzofuran-3-yl)-acetic acid] |  | 7.89
21 | CC(C)(O)CCc1ccc(Oc2ccc(F)c3c2CC[C@H]3Oc2ccc3c(c2)OC[C@H]3CC(=O)O)c(C#N)c1 [Example 62, ((S)-6-{(R)-4-[2-Cyano-4-(3-hydroxy-3-methylbutyl)phenoxy]-7-fluoro-indan-1-yloxy}-2,3-dihydrobenzofuran-3-yl)-acetic acid] |  | 7.92
22 | CN(C)C(=O)c1ccc(Oc2ccc(F)c3c2CC[C@H]3Oc2ccc3c(c2)OC[C@H]3CC(=O)O)cc1 [Example 63, ((S)-6-{(R)-4-[4-(Dimethylcarbamoyl)phenoxy]-7-fluoro-indan-1-yloxy}-2,3-dihydrobenzofuran-3-yl)-acetic acid] |  | 7.66
23 | O=C(O)C[C@@H]1COc2cc(O[C@@H]3CCc4c(Oc5ccc(C(=O)N6CCOCC6)cc5)ccc(F)c43)ccc21 [Example 64, ((S)-6-{(R)-7-Fluoro-4-[4-(morpholine-4-carbonyl)phenoxy]-indan-1-yloxy}-2,3-dihydrobenzofuran-3-yl)-acetic acid] |  | 7.57
24 | N#Cc1cc(CN2CCOCC2)ccc1Oc1ccc(F)c2c1CC[C@H]2Oc1ccc2c(c1)OC[C@H]2CC(=O)O [Example 70, ((S)-6-{(R)-4-[2-Cyano-4-(morpholin-4-ylmethyl)phenoxy]-7-fluoro-indan-1-yloxy}-2,3-dihydrobenzofuran-3-yl)-acetic acid] |  | 7.36
25 | O=C(O)C[C@@H]1COc2cc(OC3CCc4ccccc43)ccc21 (some centres unmarked) [XX, reference compound] | <5 | 
26 | CC(C)c1cccc2c1CC[C@H]2Oc1ccc2c(c1)OC[C@H]2CC(=O)O [XXI, reference compound] | <5 | 
